Results on 36 compounds are retold here after article PMC6522912, “Evaluation of the published kinase inhibitor set to identify multiple inhibitors of bacterial ATP-dependent mur ligases” (Journal of Enzyme Inhibition and Medicinal Chemistry, 2019).

A word on the IC50: it is the concentration that inhibits the measured activity by half.

Experiment [1] deals with E. coli MurD (Escherichia coli, UniProt P14900). Nature of the experiment: biochemical. The note with it: for remaining activity at 100 µM: 0.25 h, Table S1, PKIS screening, read-out: RA [%] at 100 µM MurD. As for the experimental part:
(§1) Inhibition of the Mur ligases was determined using the malachite green assay, with slight modifications.
(§2) In all cases, the final concentration of DMSO was 5% (v/v). After incubation for 15 min at 37 °C, the enzyme reaction was terminated by addition of 100 µM Biomol green reagent, and the absorbance was measured at 650 nm after 5 min. All of the experiments were run in duplicate. Residual activities were calculated with respect to control assays without the tested compounds, but with the 5% DMSO carrier.
(§3) The published kinase inhibitor set compounds were evaluated for inhibition of MurC, D and F ligases from E. coli using the Malachite green assay, which detects orthophosphate generated during enzymatic reactions. To avoid non-specific inhibition due to aggregate formation, all of the compounds were tested in the presence of detergent (0.005% Triton-X114). The data are presented as the residual activities of these Mur ligases in the presence of 100 µM of each test compound (Supporting Information Table S1).

For experiment [2], the target named is E. coli MurC (Escherichia coli, UniProt P17952). The experiment can be described thus: Malachite green inhibition assay, MurC. It is filed as biochemical. As to conditions: for remaining activity at 100 µM: 0.25 h. As for the experimental part:
as §1, §2
as §3, with “S1). […] Additionally, regarding the data of profiled compounds in large panels of human kinase assays[41]” for “S1).”

The target in experiment [3] is E. coli MurF (Escherichia coli, UniProt P11880). The experiment can be described thus: biochemical. The note with it: for remaining activity at 100 µM: 0.25 h, read-out: RA [%] at 100 µM MurF. As for the experimental part: as §1, §2
as §3, with “S1). […] Additionally, regarding the data of profiled compounds in large panels of human kinase assays[41]” for “S1).”

[4] abbreviates: Table S1, PKIS screening, read-out: RA [%] at 100 µM MurC.
Setting [5] is: Table S3, aza stilbene compounds.

Where two headings read alike, the source gives them in different places.

E. coli MurC, sequence (P17952 whole entry): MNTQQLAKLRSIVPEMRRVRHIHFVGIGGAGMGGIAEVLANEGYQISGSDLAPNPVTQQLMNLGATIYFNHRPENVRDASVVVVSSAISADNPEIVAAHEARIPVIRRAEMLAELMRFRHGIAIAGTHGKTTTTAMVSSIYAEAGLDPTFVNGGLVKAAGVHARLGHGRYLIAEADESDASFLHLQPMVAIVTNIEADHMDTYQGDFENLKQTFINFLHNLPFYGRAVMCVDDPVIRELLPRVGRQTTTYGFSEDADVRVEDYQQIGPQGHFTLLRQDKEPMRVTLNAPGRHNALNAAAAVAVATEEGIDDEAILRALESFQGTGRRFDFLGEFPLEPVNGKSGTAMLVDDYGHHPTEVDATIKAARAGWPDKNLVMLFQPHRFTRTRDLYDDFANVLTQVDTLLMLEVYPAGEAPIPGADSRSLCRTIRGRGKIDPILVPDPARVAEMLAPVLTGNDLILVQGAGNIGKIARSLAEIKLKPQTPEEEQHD
E. coli MurF, sequence (P11880 whole entry): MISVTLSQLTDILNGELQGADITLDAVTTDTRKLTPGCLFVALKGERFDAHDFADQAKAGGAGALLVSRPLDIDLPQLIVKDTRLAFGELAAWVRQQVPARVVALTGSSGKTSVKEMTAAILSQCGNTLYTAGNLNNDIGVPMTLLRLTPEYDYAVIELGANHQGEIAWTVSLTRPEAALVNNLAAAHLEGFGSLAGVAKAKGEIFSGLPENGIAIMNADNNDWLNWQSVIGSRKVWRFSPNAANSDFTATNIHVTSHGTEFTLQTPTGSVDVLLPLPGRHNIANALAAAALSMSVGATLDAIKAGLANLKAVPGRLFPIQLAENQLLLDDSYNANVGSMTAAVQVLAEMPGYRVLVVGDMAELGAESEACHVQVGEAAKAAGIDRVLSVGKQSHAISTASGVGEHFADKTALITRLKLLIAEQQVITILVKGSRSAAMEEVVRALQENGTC
E. coli MurD, sequence (P14900 whole entry): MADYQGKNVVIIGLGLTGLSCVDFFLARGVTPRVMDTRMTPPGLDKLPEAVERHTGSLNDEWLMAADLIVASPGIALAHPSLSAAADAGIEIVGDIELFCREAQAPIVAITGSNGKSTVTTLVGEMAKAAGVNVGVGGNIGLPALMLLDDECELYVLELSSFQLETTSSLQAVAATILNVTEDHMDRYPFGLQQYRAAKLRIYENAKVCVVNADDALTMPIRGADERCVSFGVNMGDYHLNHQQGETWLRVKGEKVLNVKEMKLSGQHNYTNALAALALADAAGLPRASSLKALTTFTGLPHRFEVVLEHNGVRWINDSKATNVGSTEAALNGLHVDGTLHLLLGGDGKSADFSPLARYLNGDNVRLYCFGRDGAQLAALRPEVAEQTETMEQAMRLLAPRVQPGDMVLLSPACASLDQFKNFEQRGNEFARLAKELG

Turning to `Cc1ccc(NC(=O)c2ccnc(N3CCCC3)c2)cc1-c1ccc(C(=O)NCC2CC2)cc1` [GW769076X], the remaining activity at 100 µM in experiment [1] is 56%; in experiment [2] (setting [4]), 38%; in experiment [3] (Table S1, PKIS screening), 62%.
In the same order, the values of `O=C1Nc2ccccc2/C1=C/Nc1ccc2[nH]c(=O)[nH]c2c1` [GW284408X] are 86%, 105% and 86%.
Consider `Cc1cc(O)cc(C)c1C=Cc1cncc(C(=O)OC(C)(C)C)c1` [Compound 16], for which the “RA (%) MurD” value in experiment [1] came to 96%. For the same compound, the “RA (%) MurC” value in experiment [2] (setting [5]) is on record as 75%. Further, the “RA (%) MurF” value in experiment [3] (setting [5]) came to 69%.
With `Nc1nc(-c2ccc3c(c2)C(=Cc2cc(Br)c(O)c(Br)c2)C(=O)N3)cs1` [GW407323A], the remaining activity at 100 µM in experiment [1] was found to be 54%; in experiment [2] (setting [4]), 64%; in experiment [3] (Table S1, PKIS screening), 41%.
Regarding `COc1cc2ncn(-c3cc(OCc4ccccc4C(F)(F)F)c(C(N)=O)s3)c2cc1OC` [GW843682X], the remaining activity at 100 µM in experiment [1] worked out at 82%; in experiment [2] (setting [4]) it was 65%; in experiment [3] (Table S1, PKIS screening) it was 83%.
For the compound `O=C(Nc1n[nH]c2cc(-c3cc(F)ccc3F)ccc12)C1CC1` [SB-735465], the remaining activity at 100 µM was determined as 80% in experiment [1]; 59% in experiment [2] (setting [4]); 82% in experiment [3] (Table S1, PKIS screening).
For the compound `O=C1Nc2ccc(I)cc2C1=Cc1cc(Br)c(O)c(Br)c1` [GW305074X], the remaining activity at 100 µM in experiment [1] is 92%; in experiment [2] (setting [4]), 100%; in experiment [3] (Table S1, PKIS screening), 78%.
In the same order, the values of `N#Cc1c(NC(=O)c2ccccc2F)sc2c1CCCC2` [GW572738X] are 91%, 88% and 100%.
For `COc1cc2ncn(-c3cc(OCc4ccccc4S(C)(=O)=O)c(C#N)s3)c2cc1OC` [GSK319347A] the same measures were 100%, 59% and 75%.
For the compound `CCCN1CCC(Oc2cc(Nc3nc(Nc4cccc(F)c4C(N)=O)c4cc[nH]c4n3)c(OC)cc2Cl)CC1` [GSK1713088A], the remaining activity at 100 µM in experiment [1] worked out at 54%; in experiment [2] (setting [4]) it was 59%; in experiment [3] (Table S1, PKIS screening), 85%.
For `CC1=C(C(=O)Nc2ccc3[nH]ncc3c2)C(c2ccc(F)cc2)NC(c2ccc(C(F)(F)F)nc2)=N1` (stereo not shown) [GSK317354A] the same measures were 96%, 68% and 96%.
On to `COc1cc(C)c(N(C)C(=O)CN(C)C)cc1Nc1nc(Nc2cccc(F)c2C(N)=O)c2cc[nH]c2n1` [GSK2219385A], for which the remaining activity at 100 µM was found to be 93% in experiment [1]; 73% in experiment [2] (read-out: RA [%] at 100 µM MurC, Table S1, PKIS screening); 93% in experiment [3] (Table S1, PKIS screening).
For `CCn1c(-c2nonc2N)nc2cncc(C(=O)N3CC[C@H](N)C3)c21` [SB-772077-B], the “RA [%] at 100 µM MurD” value in experiment [1] was 90. In addition, the “RA [%] at 100 µM MurC” value in experiment [2] (Table S1, PKIS screening) was determined as 77%. Moreover, the “RA [%] at 100 µM MurF” value in experiment [3] (Table S1, PKIS screening) turned out to be 80%.
As for `COc1ccc(C2=C(N3CCc4ccccc43)C(=O)NC2=O)cc1` [SB-361058], the remaining activity at 100 µM in experiment [1] stood at 100%; in experiment [2] (setting [4]) it was 100%; in experiment [3] (Table S1, PKIS screening), 97%.
Regarding `CS(=O)(=O)CCNCc1ccc(-c2ccc3ncnc(Nc4ccc(OCc5cccc(C(F)(F)F)c5)cc4)c3c2)o1` [GW567808A], the remaining activity at 100 µM is 34% in experiment [1]; 56% in experiment [2] (setting [4]); 100% in experiment [3] (Table S1, PKIS screening).
In the same order, the values of `CCS(=O)(=O)c1ccc(OC)c(Nc2ncc(-c3cccc(OC)c3)o2)c1` [GW580509X] are 82%, 100% and 93%.
In the same order, the values of `NC(=O)c1sc(-n2cnc3ccccc32)cc1OCc1ccccc1Br` [GSK1023156A] are 82%, 55% and 84%.
For `COc1cccc(-n2ncc3c(N/N=C/c4ccc(S(C)(=O)=O)cc4)ncnc32)c1` [GW811168X] the same measures were 87%, 57% and 35%.
Regarding `COc1ccc(-c2nn3ncccc3c2-c2ccnc(Nc3ccc(F)c(F)c3)n2)cc1` [GW827396X], the remaining activity at 100 µM in experiment [1] is 61%; in experiment [2] (setting [4]) it was 79%; in experiment [3] (Table S1, PKIS screening), 61%.
Take `COc1cc2ncn(-c3cc(OCc4ccccc4C(F)(F)F)c(C(=O)N(C)C)s3)c2cc1OC` [GSK1030062A]: the remaining activity at 100 µM in experiment [1] is 76%; in experiment [2] (setting [4]), 68%; in experiment [3] (Table S1, PKIS screening), 63%.
For `COc1ccc(-c2cc3c(N)ncnc3o2)cc1` [GW642138X] the same measures were 93%, 74% and 81%.
In the same order, the values of `CN(C)c1ccc2c(c1)/C(=C/Nc1ccc(S(N)(=O)=O)cc1)C(=O)N2` [GW416469X] are 89%, 76% and 79%.
In the same order, the values of `CN1CCC(n2cnc(-c3ccc(F)cc3)c2-c2ccnc(Nc3ccccc3)n2)CC1` [SB-236687] are 90%, 79% and 67%.
With `NS(=O)(=O)c1ccc(N/N=C2\C(=O)Nc3ccc4ncccc4c32)cc1` [GW305178X], the remaining activity at 100 µM in experiment [1] stood at 57%; in experiment [2] (setting [4]), 52%; in experiment [3] (Table S1, PKIS screening) it was 56%.
For `Cc1cc(-c2ccccn2)cc(C)c1/C=C/c1cncc(-c2nn[nH]n2)c1` [GW459057A] the same measures were 83%, 59% and 76%.
Regarding `CS(=O)(=O)CCNCc1cc(-c2cc3c(Nc4ccc(OCc5cccc(F)c5)c(Cl)c4)ncnc3s2)cs1` [GSK300014A], the remaining activity at 100 µM came to 91% in experiment [1]; 88% in experiment [2] (setting [4]); 95% in experiment [3] (Table S1, PKIS screening).
For `CCn1c(-c2nonc2N)nc2c(C#CCN)ncc(OCCCN)c21` [GSK561866B] the same measures were 82%, 52% and 66%.
For `Fc1ccc(-c2ncn(C3CCNCC3)c2-c2ccnc(Oc3ccc(F)c(F)c3)n2)cc1` [SB-253228], the remaining activity at 100 µM in experiment [1] is 40%; in experiment [2] (setting [4]) it was 32%; in experiment [3] (Table S1, PKIS screening), 70%.
Regarding `Cc1ccc2c(c1)C(=NNc1ccc(S(N)(=O)=O)cc1)C(=O)N2` [GW275944X], the remaining activity at 100 µM in experiment [1] stood at 87%; in experiment [2] (setting [4]), 92%; in experiment [3] (Table S1, PKIS screening), 83%.
Consider `CS(=O)(=O)CCNCc1ccc(-c2ccc3ncnc(Nc4ccc(OCc5ccccc5)c(Cl)c4)c3c2)o1` [GW574783B], for which the remaining activity at 100 µM in experiment [1] turned out to be 37%; in experiment [2] (setting [4]), 58%; in experiment [3] (Table S1, PKIS screening), 79%.
In the same order, the values of `CS(=O)(=O)CCNCc1nc(-c2ccc3ncnc(Nc4ccc(F)c(Cl)c4)c3c2)cs1` [GW461104A] are 73%, 88% and 84%.
`Fc1ccc(-c2nn3ccccc3c2-c2ccncc2)cc1` [GW434756X]: the remaining activity at 100 µM in experiment [1] came to 68%; in experiment [2] (setting [4]), 74%; in experiment [3] (Table S1, PKIS screening) it was 94%.
For the compound `CCCN1CCC(c2ccc(Nc3nc(Nc4cc(F)ccc4C(N)=O)c4cc[nH]c4n3)c(OC)c2)CC1` [GSK1326255A], the remaining activity at 100 µM in experiment [1] worked out at 9%; in experiment [2] (setting [4]), 0%; in experiment [3] (Table S1, PKIS screening), 4%. For the same compound, the IC50 in experiment [1] (printed in the RA cell of Table S1, read-out: IC50 MurD) worked out at 39 µM.
With `Nc1nccc(-c2c(-c3ccc(F)cc3)ncn2C2CCC(O)CC2)n1` (stereo not shown) [SB-223133], the remaining activity at 100 µM in experiment [1] is 87%; in experiment [2] (setting [4]), 64%; in experiment [3] (Table S1, PKIS screening), 88%.
Take `NS(=O)(=O)c1ccc(NN=C2C(=O)Nc3ccc(C(=O)NCc4ccncc4)cc32)cc1` [GW300657X]: the remaining activity at 100 µM was found to be 96% in experiment [1]; 75% in experiment [2] (setting [4]); 85% in experiment [3] (Table S1, PKIS screening).
For `CNC(=O)c1cncc(/C=C/c2ccccc2Cl)c1` [GW445017X] the same measures were 87%, 68% and 90%.
